What is called melting point is the temperature of the solid-liquid transition.

`Cc1cc(NS(=O)(=O)c2ccc(N)cc2)n(-c2ccccc2)n1` displayed a melting point of 195 °C.

In turn, `Cn1cnc([N+](=O)[O-])c1Sc1ncnc2nc[nH]c12` registered a melting point of 244 °C.

Consider `CC(C)[C@@H]1C(=O)N(c2ccccc2)[C@@H]1c1ccccc1`, for which the melting point was found to be 169 °C.

For `CC(=O)C(=O)Nc1ccccc1`, the melting point worked out at 100 °C.

Turning to `N#Cc1ccccc1COc1ccccc1`, the melting point is 62 to 64 °C.

With `COc1ccc(C(N)=S)cn1`, the melting point was 150 to 152 °C.

Regarding `CC1CCC(C(C)C)/C(=N\NC(N)=O)C1` (configuration not stated), the melting point fell in the range of 216 to 217 °C.

`CCCCc1ccc(C(N)=O)cc1` came in with a melting point of 127 to 129 °C.

Regarding `COc1cc(C(N)=O)cc(Cl)n1`, the melting point was determined as 186 °C.

Turning to `O=C1OC(c2ccccc2)=N/C1=C/c1ccc(-c2ccccc2[N+](=O)[O-])o1`, the melting point came out at 210 °C.

As to `O=c1c2ccccc2c(=O)n2n1C1C=CC2C1`, the melting point was determined as 231 °C.

`OC1(c2ccc(Cl)c(C(F)(F)F)c2)CCNCC1` returned a melting point of 135 to 140 °C.

Compound `CSc1ccc2c(c1)N(CCC1CCCCN1C)c1ccccc1S2` (configuration not stated) returned a melting point of 73 °C.

`CCOCn1c(-c2ccc(Cl)cc2)c(C#N)c(Br)c1C(F)(F)F`: the melting point was determined as 101 °C.

The compound `CCCCOc1c(-c2nnc(-c3ccc(Cl)cc3)o2)sc(-c2nnc(-c3ccc(Cl)cc3)o2)c1OCCCC` had a melting point of 178 °C.

Take `CCCCCCCCCCCCCCCCC#N`: the melting point was 34 °C.

The compound `CC1NC(=O)C(C)NC1=O` (configuration not stated) had a melting point of 274 to 278 °C.

On to `N#Cc1sc2c(=O)c3ccccc3c(=O)c=2sc1C#N`, for which the melting point was determined as 225 °C.

`Cn1cnc(C(=O)O)c1`: the melting point was found to be 245 °C.

Regarding `COC(=O)c1ccccc1S(=O)(=O)NC(=O)N(C)c1nc(C)nc(OC)n1`, the melting point was 142 °C.

`CCCC(=O)Nc1ccc(O)cc1` registered a melting point of 140 °C.

`COc1cc(CC(=O)O)cc(OC)c1` showed a melting point of 103 °C.

Regarding `O=C1OC(=O)C23CC4=C(CC=CC4)CC12CC1=C(CC=CC1)C3` (configuration not stated), the melting point lay within 220 to 247 °C.

`Cc1ccnc(Cl)c1[N+](=O)[O-]` displayed a melting point of 53 °C.

Consider `CC1(C)OC2C(CO)OC(n3ccc(=O)[nH]c3=O)C2O1` (configuration not stated), for which the melting point was 163 to 166 °C.

Regarding `COc1cc([N+](=O)[O-])ccc1C`, the melting point was 69 to 74 °C.

For the compound `O=C1C(=C2Nc3ccccc3C2=O)Nc2ccccc21`, the melting point was 300 °C.

Compound `CC1(c2ccc([N+](=O)[O-])cc2)Nn2c(nnc2C(F)(F)F)S1` (configuration not stated) gave a melting point of 255 °C.

In turn, `Cc1ccc(C(c2ccc(C)o2)c2ccccc2N=C=S)o1` registered a melting point of 65 °C.

In the case of `O=C1OC(c2ccccc2)=NC1=Cc1ccccc1F`, the melting point is 148 to 149 °C.

In turn, `CCCCC=CCCC=CCCCCCCOC(C)=O` came in with a melting point of 25 °C.

On to `COc1nn(-c2ccccc2)cc1/C=C/C=O`, for which the melting point fell in the range of 131 to 133 °C.

As to `CCC(=O)Nc1nc(C)c(Cl)s1`, the melting point came out at 159 °C.

In the case of `O=C1C=C(NCCc2ccccn2)C(=O)c2ccccc21`, the melting point was in the range of 128 to 129 °C.

Regarding `NNS(=O)(=O)c1ccc(-c2ccccn2)s1`, the melting point fell in the range of 109 to 111 °C.

As for `COc1cc(C)cc(OC)c1OC`, the melting point stood at 36 °C.

Consider `CNc1ccc(OC)cc1`, for which the melting point was 33 to 36 °C.

Turning to `Clc1cncc(Cl)c1Cl`, the melting point turned out to be 72 °C.

As for `Cc1ccc(Cn2ncc3c(N)ncnc32)cc1`, the melting point came to 222 °C.

In turn, `CCOC(=O)C=Cc1ccc(O)c(OC)c1` showed a melting point of 57 to 59 °C.

The compound `CC(=O)OC1CC2C(CCC3(C)C(C(C)CCCC(C)C)CCC23)C2(C)CCC(=O)C=C12` (configuration not stated) showed a melting point of 101 to 102 °C.

As to `Oc1cccc(-c2ccccc2)c1`, the melting point is 78 °C.

As to `O=C(O)c1nc(O)n(-c2ccccc2)n1`, the melting point was 180 °C.

`NC(=O)CS(=O)C(c1ccccc1)c1ccccc1` (configuration not stated): the melting point was found to be 164 °C.

As for `CC(=O)C=Cc1ccc(C=CC(C)=O)cc1`, the melting point came out at 163 °C.

Take `O=C(O)c1cccc(-c2ccccn2)c1`: the melting point was 207 to 209 °C.

As to `O=S(=O)(Cl)c1cc(S(=O)(=O)Cl)c(Cl)s1`, the melting point is 79 to 84 °C.

Consider `C1CCSCC1`, for which the melting point is 19 °C.

Compound `CC1(C(=O)O)CCC2(C)CCC3(C)C(=CC(=O)C4C5(C)CCC(OC(=O)CCC(=O)O)C(C)(C)C5CCC43C)C2C1` (configuration not stated) showed a melting point of 292 °C.

Consider `COc1ccc(C(Cl)=C(c2ccc(OC)cc2)c2ccc(OC)cc2)cc1`, for which the melting point was 115 °C.

In the case of `Nc1cc(C(F)(F)F)ccn1`, the melting point turned out to be 73 °C.

Compound `O=[N+]([O-])c1ccc2ncoc2c1` returned a melting point of 150 to 152 °C.

`CCCCOCCOCCOC(=O)CCCCC(=O)OCCOCCOCCCC` returned a melting point of -47 °C.

The compound `CC(=O)N1C(=O)/C(=C/c2ccccc2)c2cc3c(cc21)N(C(C)=O)C(=O)/C3=C/c1ccccc1` gave a melting point of 256 °C.

For the compound `COC1=CC(C)C2CC3OC(=O)CC4C(C)=C(OC)C(=O)C(C2(C)C1=O)C34C` (configuration not stated), the melting point worked out at 222 °C.

`CCOC(=O)c1cc(C)n(C)n1` showed a melting point of 87 °C.

`CN(C)C(=S)Sc1ccc([N+](=O)[O-])cc1[N+](=O)[O-]` returned a melting point of 152 °C.

As for `Nc1cnn(-c2ccccc2)c(=O)c1Br`, the melting point is 224 °C.

In turn, `O=C(c1ccccc1)c1ccc(C(=O)c2ccccc2)cc1` displayed a melting point of 163 °C.

`Cc1ccc(C)c(OCCCC(C)(C)C(=O)O)c1` returned a melting point of 61 °C.

`c1ccc2c(-c3nnc(-c4cccc5ccccc45)o3)cccc2c1` came in with a melting point of 177 °C.

In the case of `COc1ccc(-c2cc3ccccc3cn2)cc1`, the melting point was 98.5 to 100 °C.

Turning to `COC(=O)CCC(C)C1CCC2C3C(=O)CC4CC(=O)CCC4(C)C3CC(=O)C12C` (configuration not stated), the melting point lay within 242 to 243 °C.

`O=C1C=CC(=O)[C@@H]2CC3=C(CC4=C(C3)C[C@H]3C(=O)C=CC(=O)[C@H]3C4)C[C@H]12` displayed a melting point of 335 to 340 °C.

With `NNC(=S)NC1CCCCC1`, the melting point fell in the range of 142 to 145 °C.

For `CC1=CC(=O)C=CC1=O`, the melting point was found to be 69 °C.

Take `CN(C)c1ccc(-c2c(C#N)c(N)n(N)c(=O)c2C#N)cc1`: the melting point is 328 to 330 °C.

Turning to `FC(F)(F)c1cc(CCl)cc(C(F)(F)F)c1`, the melting point was 31 °C.

In the case of `O=[N+]([O-])c1ccc(C2Nn3c(nnc3-c3cccnc3)S2)cc1` (configuration not stated), the melting point fell in the range of 245 to 246 °C.

On to `CC(C)CCCC(C)C1CCC2C3CCC4=CC(O)CCC4(C)C3CCC12C` (configuration not stated), for which the melting point stood at 132 °C.

The compound `CNc1nc(NC(C)C)nc(SC)n1` yielded a melting point of 85 °C.

In the case of `O=C(O)c1ccc(-c2cccs2)cc1`, the melting point was in the range of 240 to 244 °C.

Turning to `C=CC1CO1` (configuration not stated), the melting point was -135 °C.

Compound `S=C(SC(=S)N1CCCCC1)N1CCCCC1` had a melting point of 110 °C.

Compound `CCCCCCCCOc1ccc(NC(=O)c2ccc(OC)cc2)cc1` came in with a melting point of 152 to 154 °C.

Turning to `O=C(C1=NOC2C(=O)N(c3ccccc3)C(=O)C12)c1cccs1` (configuration not stated), the melting point stood at 174 °C.

The compound `O=C(O)C=Cc1ccc(C=CC(=O)O)cc1` showed a melting point of 300 °C.

The compound `O=C(C[N+](=O)[O-])c1ccccc1` gave a melting point of 101 to 106 °C.

With `COc1ccc(C2C3=C(CCCC3)OC3=C2CCCC3)cc1`, the melting point amounted to 104 °C.

Compound `CC1OC(OC2CCC3(C=O)C4CCC5(C)C(C6=CC(=O)OC6)CCC5(O)C4CCC3(O)C2)C(O)C(O)C1O` (configuration not stated) showed a melting point of 238 °C.

For the compound `Nc1cccc(-c2ncccn2)c1`, the melting point lay within 99.5 to 102 °C.

`[O-][N+]1=C(c2ccccn2)/C(=N\O)c2ccccc21`: the melting point is 215 to 217 °C.

As for `O=C1CC(c2ccccc2)Oc2ccc(O)cc21` (configuration not stated), the melting point is 220 to 222 °C.

For the compound `C1CN2CCN3CCN1C23`, the melting point is -14.7 °C.

Turning to `C#CC(O)c1ccccc1` (configuration not stated), the melting point came out at 28 °C.

For `Cc1ncc(C#N)c(N)n1`, the melting point lay in the range of 249 to 252 °C.

Compound `CC(=O)C=CC(=O)O` had a melting point of 124 °C.

Regarding `CCCCC(O)C(O)CO` (configuration not stated), the melting point is 92 to 97 °C.

Regarding `Brc1ccc(Oc2c(Br)cc(Br)cc2Br)cc1`, the melting point was in the range of 134 to 136 °C.

`O=C(Nc1ccc(-c2ccc(NC(=O)c3ccccc3)cc2NC(=O)c2ccccc2)c(NC(=O)c2ccccc2)c1)c1ccccc1` showed a melting point of 279 °C.

`CCC(C(=O)O)C1(O)CCCCC1` (configuration not stated): the melting point is 81.5 °C.

As for `O=C(Cl)c1sccc1Br`, the melting point lay in the range of 65 to 67 °C.

Consider `C1=CCNCC1`, for which the melting point was -48 °C.

On to `N#Cc1c(Cl)c(Cl)c(Cl)c(C#N)c1Cl`, for which the melting point turned out to be 252 °C.

Compound `O=c1oc2c(o1)=C(c1ccccc1)S(=O)(=O)C=2c1ccccc1` showed a melting point of 227 °C.

For `CC(C)(c1ccccc1)C(C)(C)c1ccccc1`, the melting point was 90 to 110 °C.

For the compound `FC1=C(F)C(F)(F)C1(F)F`, the melting point is -60 °C.

Compound `NCc1cccc2c(Br)cccc12` showed a melting point of 138 to 139 °C.

Compound `CN(C)c1ccc(/C=C(/C#N)C(N)=S)cc1` returned a melting point of 189 °C.

In the case of `CCCCCCCCCCCCOC(=O)CCSCCC(=O)OCCCCCCCCCCCC`, the melting point was found to be 41 °C.

For `Cc1c(C)c([N+](=O)[O-])c(C(C)(C)C)c([N+](=O)[O-])c1C`, the melting point was determined as 136 °C.

With `CCOC(=O)c1c(NC(=S)NCc2ccccc2)sc2c1CCN(Cc1ccccc1)C2`, the melting point was in the range of 135 to 138 °C.

`O=c1oc2cc(O)ccc2s1` gave a melting point of 160 °C.

The compound `COC(=O)c1sc(SC)c(S(=O)(=O)C(C)C)c1Cl` registered a melting point of 141 to 144 °C.

In the case of `O=CC(O)C(O)CO` (configuration not stated), the melting point amounted to 164 °C.

Consider `Cc1ccccc1NC(=S)c1cc(C(C)(C)C)c(O)c(C(C)(C)C)c1`, for which the melting point lay in the range of 257 to 258 °C.

Consider `O=C(O)c1cc(Cl)nnc1Cl`, for which the melting point was found to be 139 °C.
